Assay results reported in ChEMBL document CHEMBL1201862, “PubChem BioAssay data set” (2004).
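Following 48 hours of exposure in 96-well plates, responses at five concentrations were used to interpolate endpoints linearly. The concentration for 50% growth inhibition is given as GI50.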 Calls of active or inactive are those of the source. Cut-off read from the data, not from the text of the source: active = GI50 up to about 1.1 µM and inactive = higher.

Tests used:
Experiment in all cases: NCI anticancer screen, dose series, 48 h
RXF 631 = tested on: RXF 631
SF-539 = tested on: SF-539
XF498 = tested on: XF498
OVCAR-3 = tested on: OVCAR-3
HCT-15 = tested on: HCT-15
M19-MEL = tested on: M19-MEL
M14 = tested on: M14
SF-295 = tested on: SF-295
UACC-257 = tested on: UACC-257
786-0 = tested on: 786-0
LOX IMVI = tested on: LOX IMVI
HOP-18 = tested on: HOP-18
A549 = tested on: A549
SNB-75 = tested on: SNB-75
UACC-62 = tested on: UACC-62
K562 = tested on: K562
SN12C = tested on: SN12C
TK-10 = tested on: TK-10
RXF 393 = tested on: RXF 393
SNB-19 = tested on: SNB-19
OVCAR-5 = tested on: OVCAR-5
HT-29 = tested on: HT-29
HCT-116 = tested on: HCT-116
NCI-H460 = tested on: NCI-H460
SR = tested on: SR
CAKI-1 = tested on: CAKI-1
DMS-273 = tested on: DMS-273
HOP-92 = tested on: HOP-92
LXFL 529 = tested on: LXFL 529
HCC 2998 = tested on: HCC 2998
RPMI-8226 = tested on: RPMI-8226
HOP-62 = tested on: HOP-62
MOLT-4 = tested on: MOLT-4
SK-MEL-28 = tested on: SK-MEL-28
CCRF-CEM = tested on: CCRF-CEM
DMS-114 = tested on: DMS-114
KM-20L2 = tested on: KM-20L2
DLD-1 = tested on: DLD-1
OVCAR-4 = tested on: OVCAR-4
A498 = tested on: A498
ACHN = tested on: ACHN
Malme-3M = tested on: Malme-3M
KM12 = tested on: KM12
UO-31 = tested on: UO-31
NCI-H23 = tested on: NCI-H23
EKVX = tested on: EKVX
SF-268 = tested on: SF-268
SK-MEL-2 = tested on: SK-MEL-2
NCI-H226 = tested on: NCI-H226
SK-MEL-5 = tested on: SK-MEL-5
HL-60 = tested on: HL-60
SW-620 = tested on: SW-620
SNB-78 = tested on: SNB-78
IGROV-1 = tested on: IGROV-1
OVCAR-8 = tested on: OVCAR-8
COLO 205 = tested on: COLO 205
U-251 = tested on: U-251
SK-OV-3 = tested on: SK-OV-3
NCI-H522 = tested on: NCI-H522

Measured: GI50

O=C1/C(=C/c2ccc(Cl)cc2)CCC1CCN1CCOCC1 (configuration not stated)
inactive: RXF 631 46.6 µM | SF-539 > 100 µM | XF498 56.6 µM | OVCAR-3 59.3 µM | M19-MEL 72.9 µM | M14 > 100 µM | SF-295 > 100 µM | UACC-257 > 100 µM | 786-0 72.3 µM | LOX IMVI 39.8 µM | HOP-18 > 100 µM | A549 > 100 µM | SNB-75 > 100 µM | UACC-62 > 100 µM | K562 25.8 µM | SN12C 72.1 µM | TK-10 > 100 µM | RXF 393 47.9 µM | SNB-19 > 100 µM | OVCAR-5 > 100 µM | HT-29 32.8 µM | HCT-116 53 µM | NCI-H460 38.9 µM | SR 26.1 µM | CAKI-1 76.2 µM | DMS-273 57 µM | HOP-92 75.7 µM | LXFL 529 56.4 µM | HCC 2998 46.9 µM | RPMI-8226 23.8 µM | HOP-62 72.1 µM | MOLT-4 26.1 µM | SK-MEL-28 > 100 µM | CCRF-CEM 29 µM | DMS-114 28.7 µM | KM-20L2 43.8 µM | DLD-1 61 µM | OVCAR-4 37.8 µM | A498 61.1 µM | ACHN 60.4 µM | Malme-3M > 100 µM | KM12 40.8 µM | UO-31 68.7 µM | NCI-H23 86.1 µM | EKVX > 100 µM | SF-268 54.3 µM | SK-MEL-2 > 100 µM | NCI-H226 > 100 µM | SK-MEL-5 55.5 µM | HL-60 23 µM | SW-620 > 100 µM | SNB-78 > 100 µM | IGROV-1 > 100 µM | OVCAR-8 > 100 µM
36.3 µM: HCT-15

Cc1ccc(S(=O)(=O)N2CCN(C=S)CC2)cc1
inactive: RXF 631 > 100 µM | SF-539 > 100 µM | OVCAR-3 > 100 µM | M19-MEL > 100 µM | M14 > 100 µM | UACC-257 > 100 µM | 786-0 > 100 µM | COLO 205 > 100 µM | LOX IMVI > 100 µM | HOP-18 > 100 µM | A549 > 100 µM | SNB-75 > 100 µM | UACC-62 > 100 µM | K562 > 100 µM | SN12C > 100 µM | TK-10 > 100 µM | U-251 > 100 µM | RXF 393 > 100 µM | SNB-19 > 100 µM | OVCAR-5 > 100 µM | HT-29 > 100 µM | HCT-116 > 100 µM | NCI-H460 > 100 µM | SR > 100 µM | DMS-273 > 100 µM | LXFL 529 > 100 µM | HCC 2998 > 100 µM | SK-OV-3 > 100 µM | HOP-62 > 100 µM | NCI-H522 > 100 µM | MOLT-4 > 100 µM | SK-MEL-28 > 100 µM | CCRF-CEM > 100 µM | DMS-114 > 100 µM | KM-20L2 > 100 µM | DLD-1 > 100 µM | A498 > 100 µM | ACHN > 100 µM | Malme-3M > 100 µM | KM12 > 100 µM | UO-31 > 100 µM | NCI-H23 > 100 µM | EKVX > 100 µM | SF-268 > 100 µM | SK-MEL-2 > 100 µM | SK-MEL-5 > 100 µM | HL-60 > 100 µM | SW-620 > 100 µM | SNB-78 > 100 µM | IGROV-1 > 100 µM | OVCAR-8 > 100 µM
> 100 µM: HCT-15
